Experimental data as given in US7776833B2, “Use of cyclic bioisosters of purine system derivatives for treating diseases produced by disorders of niterergic and dopaminergic systems” (priority 2003, dated 2010).

How the values were obtained:
Assay type in all cases: in vivo, Wistar rats
[1] = tested on: nitric oxide synthase (NOS); assay: Nitric oxide synthase activity in brain regions, radiometric [3H]L-citrulline method; conditions: 3 x 20 mg/kg intramuscularly
Experimental: (§1) After the above experiments the rat brains were isolated and immediately placed in the ice cold 0.9% solution of sodium chloride. After cooling the following structures were isolated from the brain: cerebral cortex, hippocampus, mesencephalon, striatum, brainstem, hypothalamus and cerebellum. The isolated tissue was homogenized in a Potter S homogenizer for 3 minutes at 1500 rpm in 4-5 volumes of 20 mM HEPES (pH 7.5) at 4° C. The supernatants were centrifuged for 30 minutes at 11000 g at 4° C., and aliquots of the obtained supernatants were taken for determining nitrates and nitrites (NOx-), while the remaining part was mixed with cooled 20 mM of HEPES (pH 7.5), containing 0.5 mM ethylenediamine tetraacetate (EDTA), 1 mM dithiotreitol (DDT), 1 mM phenylmethylsulfonyl fluoride (PMSF), aprotinine and leupeptine at a concentration of 5 μg/ml, this mixture being used for determining nitric oxide synthase (NOS) activity.
The activity of nitric oxide synthase (NOS) was determined using a radiometric method by the rate of L-citrulline accumulation in a reaction of [^3H] L-arginine oxidation catalyzed by NOS (Bredt M., Snyder S. Nitric oxide mediates glutamate-linked enhancement of cGMP levels in the cerebellum. Proc. Natl. Acad. Sci., USA, 1989, V.86, p.9030-9033). The formation of L-citrulline in this reaction is equivalent to a biosynthesis of nitric oxide.
The reaction was initiated by adding brain supernatant in the reaction medium containing 2 μCi/ml of [3H] L-arginine, 20 mM HEPES (pH 7.4), 0.2 mM CaCl2, 5 μM FAD, 5 μM FMN, 1 mM NADPH, 50 μM of BH4. After 15-60 minutes of incubation at 37° C. a suspension of Dowex 50WX8-400 (Na^+-form), which sorbs unreacted [^3H]L-arginine, but not [^3H] L-citrulline was added to the samples. After the sorption the radioactivity of the samples was determined on a scintillation counter SL-4000 (“Intertechnique”). The activity of Ca^2+-dependent and Ca^2+-independent NOS isoforms was determined by the difference of rates of [^3H]L-citrulline formation in three parallel samples containing 2 mM EDTA (Ca^2+ chelator), 2 mM EDTA+2 mM L-NAME (inhibitor all NOS isoforms) or without inhibitors. The enzyme activity was expressed in rnol [^3H]L-citrulline acumulated per 1 minute on 1 mg of supernatant protein.
(§2) The content of protein in the samples was determined by the Bradford method (Bradford M. M. A rapid and sensitive method for quantitation of microgram quantities of protein using the principle of protein binding . Anal. Biochem., 1976, V. 72, p. 248-254) using Coumassi dye. The statistical analysis was performed using methods appropriate for respective experiments. The data are expressed as mean±standard error of mean.

[2] = tested on: physical dependence from morphine (morphine abstinence); assay: Morphine abstinence syndrome, signs scored in the open field test
Experimental: Thirty six hours after the last injection selected motor and autonomice parameters which are specific symptoms of abstinence were monitored in the <<open field>> test (an arena with a diameter of 120 cm and wall height of 40 cm).
Med., 2002, V.29, p.1-6.). The observable signs were recorded quantitatively (if it was possible) with further assignment of an index to each sign (depending on the specific feature of the sign) and calculation of the sum of scores. The expression of the abstinence syndrome was presented as a sum of scores. The results were processed using nonparametric statistical analysis based on the Mann-Whitney test.

[3] = tested on: nitrites and nitrates (NOx-); assay: Measurement of nitrates/nitrites (NOx-) in brain regions after the morphine abstinence experiment
Experimental: as §1
To estimate the intensity of metabolism of nitric oxide in rats, quantitative determination of stable metabolites of nitrogen oxide-nitrites and nitrates (NOx-) was performed using a fluorometric method by fluorescence of naphthotriazole, a product of reaction of 2,3- diaminonaphthalene (DAN) and nitrite in an acidic medium (Misko T. R., Schilling R. J., Salvemini D. et al. A fluorometric assay for the measurement of nitrite in biological samples. Anal. Biochem., 1993, V. 214, p.11-16) with modifications (Lei B., Adachi N., Nagaro T., Arai T. Measurement of total nitric oxide metabolite (NO (x) (-)) levels in vivo. Brain. Res. Protoc., 1999, V. 4, p. 415-419).
The supernatants of brain deproteinized at 100° C. were placed in a nitrite recovery system containing 0.125 unit/ml of nitrate reductase, 25 μM NADPH and 25 μM FAD prepared in 20 mM Tris-HCl buffer pH 7.6 and incubated for 30 minutes at 37° C. For oxidation of NADPH a lactate dehydrogenase (LDH)/pyruvate system was used. Then 316.0 μM DAN solution in 0.62 M HCl was added and the mixture was incubated for 10 minutes in dark. For stabilization of fluorescence of the formed naphthotriazole, 280 mM NaOH was added. The fluorescence intensity was measured using spectrofluorometer Hitachi F-3000 at a wavelength of excitation 365 nm and emission 405 nm. To calculate the concentration of NOx- in the brain a standard solution of sodium nitrate was used. The concentration of NOx- was expressed in nmol/mg of protein.
as §2

[4] = Groups Nos. 3-14, compound without morphine, one value for all 12 compounds
[5] = Morphine + compound, one value for the three compounds
[6] = Morphine − (morphine + compound), compound 3 x 20 mg/kg intramuscularly, one value for the three compounds
[7] = Groups Nos. 3-14, compound without morphine, 3 x 20 mg/kg intramuscularly, one value for all 12 compounds
[8] = Morphine + compound, 3 x 20 mg/kg intramuscularly, one value for the three compounds
[9] = Control − morphine, open field, 36 h after last morphine injection

In the case of `O=c1[nH][nH]c(=O)c2ncccc12.[Li]` [Compound 6, lithium salt of pyrido [2,3-d]-6H-pyridazine-5,8-dione], the “Activity of NOS, hippocampus” value [1, 4] is reported as 3.09 ± 0.16 nmol/min/mg of protein, the “Activity of NOS, hypothalamus” value [1, 4] is reported as 5.45 ± 0.24 nmol/min/mg of protein and the “Activity of NOS, midbrain” value [1, 4] is reported as 2.60 ± 0.29 nmol/min/mg of protein. The “Activity of NOS, striatum” value [1, 4] was 1.26 ± 0.08 nmol/min/mg of protein, the “Activity of NOS, hippocampus” value [1, 5] was 2.70 ± 0.14 nmol/min/mg of protein and the “Activity of NOS, hypothalamus” value [1, 5] was 5.26 ± 0.28 nmol/min/mg of protein. For the same compound, the “Activity of NOS, midbrain” value [1, 5] was 1.83 ± 0.23 nmol/min/mg of protein, the “Activity of NOS, striatum” value [1, 5] was 1.24 ± 0.08 nmol/min/mg of protein and the “Authentic differences (ξ-square criterion) in appearance of signs of abstinence: <<Wet dog>> shakes” value (shortened to “Authentic differences … <<Wet dog>> shakes”) [2, 6] was 1.0000. For the same compound, the “Authentic differences (ξ-square criterion) in appearance of signs of abstinence: Aggression” value (from here on “Authentic differences … Aggression”) [2, 6] was 0.8327, the “Authentic differences (ξ-square criterion) in appearance of signs of abstinence: Convulsions” value (“Authentic differences … Convulsions” for short) [2, 6] was 0.7821 and the “Authentic differences (ξ-square criterion) in appearance of signs of abstinence: Diarrhea” value (from here on “Authentic differences … Diarrhea”) [2, 6] was 0.0046. The “Authentic differences (ξ-square criterion) in appearance of signs of abstinence: Dyspnea” value (shortened to “Authentic differences … Dyspnea”) [2, 6] was 0.0722, the “Authentic differences (ξ-square criterion) in appearance of signs of abstinence: Forelimb jogging” value (shortened to “Authentic differences … Forelimb jogging”) [2, 6] was 0.7821 and the “Authentic differences (ξ-square criterion) in appearance of signs of abstinence: Grit with teeth” value (“Authentic differences … with teeth” below) [2, 6] was 0.7144. For the same compound, the “Authentic differences (ξ-square criterion) in appearance of signs of abstinence: Mastication” value [2, 6] was 0.1888, the “Authentic differences (ξ-square criterion) in appearance of signs of abstinence: Piloerection” value (from here on “Authentic differences … Piloerection”) [2, 6] was 0.1847 and the “Authentic differences (ξ-square criterion) in appearance of signs of abstinence: Ptosis” value (shortened to “Authentic differences … Ptosis”) [2, 6] was 0.0201. The “Authentic differences (ξ-square criterion) in appearance of signs of abstinence: Rhinorrhea” value (from here on “Authentic differences … Rhinorrhea”) [2, 6] was 0.3017, the “Authentic differences (ξ-square criterion) in appearance of signs of abstinence: Squeak when touched” value (“Authentic differences … when touched” for short) [2, 6] was 0.1888 and the “Nitrites, brainstem” value [3, 7] was 6.31 ± 0.58 nmol/mg of protein. The “Nitrites, cerebellum” value [3, 7] was 6.66 ± 0.63 nmol/mg of protein, the “Nitrites, cerebral cortex” value [3, 7] was 4.31 ± 0.37 nmol/mg of protein and the “Nitrites, hippocampus” value [3, 7] was 6.47 ± 0.72 nmol/mg of protein. For the same compound, the “Nitrites, hypothalamus” value [3, 7] was 6.77 ± 0.83 nmol/mg of protein, the “Nitrites, midbrain” value [3, 7] was 6.65 ± 0.70 nmol/mg of protein and the “Nitrites, striatum” value [3, 7] was 6.11 ± 0.29 nmol/mg of protein. For the same compound, the “Nitrites, brainstem” value [3, 8] was 6.57 ± 0.72 nmol/mg of protein, the “Nitrites, cerebellum” value [3, 8] was 5.46 ± 0.44 nmol/mg of protein and the “Nitrites, cerebral cortex” value [3, 8] was 4.72 ± 0.37 nmol/mg of protein. For the same compound, the “Nitrites, hippocampus” value [3, 8] was 5.44 ± 0.43 nmol/mg of protein, the “Nitrites, hypothalamus” value [3, 8] was 6.57 ± 0.88 nmol/mg of protein and the “Nitrites, midbrain” value [3, 8] was 5.50 ± 0.48 nmol/mg of protein. For the same compound, the “Nitrites, striatum” value [3, 8] was 3.57 ± 0.42 nmol/mg of protein.
In the case of `O=c1[nH]n([C@@H]2O[C@H](CO)[C@@H](O)[C@H]2O)c(=O)c2nc(Br)ncc12.[Na]` [Compound 32, sodium salt of 2-bromine-7-(β-D-ribofuranosile)pyrimido[4,5-d]-6H-pyridazine-5,8-dione], the “Activity of NOS, hippocampus” value [1, 4] is reported as 3.09 ± 0.16 nmol/min/mg of protein, the “Activity of NOS, hypothalamus” value [1, 4] is reported as 5.45 ± 0.24 nmol/min/mg of protein and the “Activity of NOS, midbrain” value [1, 4] is reported as 2.60 ± 0.29 nmol/min/mg of protein. The “Activity of NOS, striatum” value [1, 4] was 1.26 ± 0.08 nmol/min/mg of protein, the “Activity of NOS, hippocampus” value [1, 5] was 2.65 ± 0.15 nmol/min/mg of protein and the “Activity of NOS, hypothalamus” value [1, 5] was 5.56 ± 0.34 nmol/min/mg of protein. The “Activity of NOS, midbrain” value [1, 5] was 1.89 ± 0.27 nmol/min/mg of protein, the “Activity of NOS, striatum” value [1, 5] was 1.34 ± 0.09 nmol/min/mg of protein and the “Authentic differences … <<Wet dog>> shakes” value [2, 6] was 1.0000. For the same compound, the “Authentic differences … Aggression” value [2, 6] was 0.8456, the “Authentic differences … Convulsions” value [2, 6] was 0.5578 and the “Authentic differences … Diarrhea” value [2, 6] was 0.0001. For the same compound, the “Authentic differences … Dyspnea” value [2, 6] was 0.0685, the “Authentic differences … Forelimb jogging” value [2, 6] was 0.9321 and the “Authentic differences … with teeth” value [2, 6] was 0.7003. The “Authentic differences (ξ-square criterion) in appearance of signs of abstinence: Mastication” value [2, 6] was 0.1888, the “Authentic differences … Piloerection” value [2, 6] was 0.2345 and the “Authentic differences … Ptosis” value [2, 6] was 0.0232. The “Authentic differences … Rhinorrhea” value [2, 6] was 0.2935, the “Authentic differences … when touched” value [2, 6] was 0.2035 and the “Nitrites, brainstem” value [3, 7] was 6.31 ± 0.58 nmol/mg of protein. For the same compound, the “Nitrites, cerebellum” value [3, 7] was 6.66 ± 0.63 nmol/mg of protein, the “Nitrites, cerebral cortex” value [3, 7] was 4.31 ± 0.37 nmol/mg of protein and the “Nitrites, hippocampus” value [3, 7] was 6.47 ± 0.72 nmol/mg of protein. For the same compound, the “Nitrites, hypothalamus” value [3, 7] was 6.77 ± 0.83 nmol/mg of protein, the “Nitrites, midbrain” value [3, 7] was 6.65 ± 0.70 nmol/mg of protein and the “Nitrites, striatum” value [3, 7] was 6.11 ± 0.29 nmol/mg of protein. For the same compound, the “Nitrites, brainstem” value [3, 8] was 6.87 ± 0.81 nmol/mg of protein, the “Nitrites, cerebellum” value [3, 8] was 5.93 ± 0.54 nmol/mg of protein and the “Nitrites, cerebral cortex” value [3, 8] was 4.84 ± 0.31 nmol/mg of protein. The “Nitrites, hippocampus” value [3, 8] was 5.31 ± 0.33 nmol/mg of protein, the “Nitrites, hypothalamus” value [3, 8] was 6.77 ± 0.46 nmol/mg of protein and the “Nitrites, midbrain” value [3, 8] was 5.95 ± 0.52 nmol/mg of protein. For the same compound, the “Nitrites, striatum” value [3, 8] was 3.57 ± 0.42 nmol/mg of protein.
For `CN1CC[C@]23c4c5ccc(O)c4O[C@H]2[C@@H](O)C=C[C@H]3[C@H]1C5.Cl` [morphine, morphine hydrochloride, reference compound], the “Authentic differences … <<Wet dog>> shakes” value [2, 9] was 0.0002, the “Authentic differences … Aggression” value [2, 9] was 0.5770 and the “Authentic differences … Convulsions” value [2, 9] was 0.0507. For the same compound, the “Authentic differences … Diarrhea” value [2, 9] was 0.0075, the “Authentic differences … Dyspnea” value [2, 9] was 0.0053 and the “Authentic differences … Forelimb jogging” value [2, 9] was 0.0180. The “Authentic differences … with teeth” value [2, 9] was 0.1266, the “Authentic differences … Piloerection” value [2, 9] was 0.5770 and the “Authentic differences … Ptosis” value [2, 9] was 0.0053. For the same compound, the “Authentic differences … Rhinorrhea” value [2, 9] was 0.2994, the “Authentic differences … when touched” value [2, 9] was 0.0053 and the “Nitrites, cerebellum” value ([3]; Group No. 2 (morphine)) was 6.07 ± 0.42 nmol/mg of protein. The “Nitrites, hippocampus” value ([3]; Group No. 2 (morphine)) was 6.45 ± 0.69 nmol/mg of protein and the “Nitrites, hypothalamus” value ([3]; Group No. 2 (morphine)) was 4.62 ± 0.71 nmol/mg of protein.
